Data from patent US10653693B2, “PRMT5 inhibitors and uses thereof” (Epizyme, Inc., priority 2014, dated 2020).
Where two headings read alike, the source gives them in different places.

Columns and labels:
Z138 cells = assay: Western analysis (sDMA, cleaved Caspase-3, cleaved PARP); assay type: cell-based, Human; details: 1 μM, 1-5 days
Procedure: Z138 cells were seeded at approximately […] in IMDM+10% horse serum media. Cells were treated with 1 μM of compound for 1, 2, 3, 4, or 5 days. Cell pellets were collected by centrifuging at 500×g for 5 minutes, washing once with PBS, and freezing at −80° C. until ready to be processed.
Protein lysates were prepared by adding RIPA buffer (Sigma R0278) containing protease inhibitor (about 5× the volume of the cell pellet, or roughly 250 μL) to each cell pellet and pipetting to resuspend. Samples were sonicated with 10×1 second pulses then centrifuged at maximum speed (13,300 RPM) for 6 minutes. Supernatant (200 μL) was transferred to a fresh Eppendorf tube, and pellets were discarded. Protein concentration was determined using a Pierce BCA Protein Assay kit.
Protein gel samples were prepared by combining 20 μg of lysate with appropriate volumes of Life Technologies NuPage Sample Reducing Agent, LDS Sample Buffer, and RIPA buffer. Gel samples were heated for 5-10 minutes at 100° C. in a heat block. A 15-well Invitrogen 4-12% Bis-Tris NuPAGE-SDS gel was loaded with a volume of 19 μL per well, and run in MES SDS buffer at 150V for about 1 hour or until maximal separation of bands was achieved.
Gels were transferred onto nitrocellulose membranes using an Invitrogen iBlot system. […]

Granta-519 = assay: Long-term proliferation (LTP) assay; assay type: cell-based; details: Homo sapiens
[1] = system: sDMA methylation in bone marrow (surrogate tissue); assay: sDMA Western blot of bone marrow samples from Z-138 efficacy study; assay type: in vivo; details: bone marrow harvested on day 21
[2] = system: cellular methylation (symmetric di-methyl arginine) in Z-138 cells; assay: In Cell Western (ICW) methylation assay, SYM11 antibody; assay type: cell-based; details: Homo sapiens, 96 h, 4 days of treatment, n=1
Procedure: Percent inhibition was determined and IC50 curves were generated using triplicate wells per concentration of compound. IC50 values were calculated using GraphPad Prism using a 4-parametric fit of the normalized dose response curves with the top fixed to 100%. Z-138 suspension cells were purchased from ATCC (American Type Culture Collection, Manassas, Va.). RPMI/Glutamax medium, penicillin-streptomycin, heat inactivated fetal bovine serum, and D-PBS were purchased from Life Technologies, Grand Island, N.Y., USA. Odyssey blocking buffer, 800CW goat anti-rabbit IgG (H+L) antibody, and Licor Odyssey infrared scanner were purchased from Licor Biosciences, Lincoln, Nebr., USA. Symmetric di-methyl arginine antibody was purchased from EMD Millipore, Billerica, Mass., USA. 16% Paraformaldehyde was purchased from Electron Microscopy Sciences, Hatfield, Pa., USA. Z-138 suspension cells were maintained in growth medium (RPMI 1640 supplemented with 10% v/v heat inactivated fetal bovine serum and 100 units/mL penicillin-streptomycin) and cultured at 37° C. under 5% CO2. […] The average of the ratio values for each control type was calculated and used to determine the percent inhibition for each test well in the plate. […] Percent inhibition was determined and IC50 curves were generated using triplicate wells per concentration of compound. […]

Maver-1 = assay: Long-term proliferation (LTP) assay; assay type: cell-based; details: Homo sapiens
Mino = assay: Long-term proliferation (LTP) assay; assay type: cell-based; details: Homo sapiens
[3] = 264 h, 11-day treatment, N = 1, read-out: Formula B LTP IC50
[4] = 264 h, 11-day treatment, N = 1, read-out: Formula B LTP IC90

Row | IC50 [2] [nM] | Compound | cell death pathways (cleaved Caspase-3 and cleaved PARP) by Western (Z138 cells) | inhibition of PRMT5 (sDMA, symmetric dimethylarginine) by Western (Z138 cells) | IC50 (Granta-519; [3]) [nM] | IC90 (Granta-519; [4]) [nM] | IC50 (Granta-519; Table 3, read-out: LTP IC50) [nM] | levels of sDMA methylation in bone marrow [1] | IC50 (Maver-1; Maver1, 264 h, 11-day treatment, N = 1, read-out: Formula B LTP IC50) [nM] | IC90 (Maver-1; Maver1, 264 h, 11-day treatment, N = 1, read-out: Formula B LTP IC90) [nM] | IC50 (Maver-1; Maver1, Table 3, read-out: LTP IC50) [nM] | IC50 (Mino; [3]) [nM] | IC90 (Mino; [4]) [nM] | IC50 (Mino; Table 3, read-out: LTP IC50) [nM]
1 | – | O=C(NC[C@H](O)CN1CCc2ccccc2C1)c1ccnc(NC2CCC2)c1 [Formula C] | induction of cell death pathways | time-dependent inhibition | – | – | – | – | – | – | – | – | – | –
2 | 0.64 | CC(=O)N1CCC(Nc2cc(C(=O)NC[C@H](O)CN3CCc4ccccc4C3)ccn2)CC1 [Formula B] | – | – | 12 | 77 | 6 | More of a dose-dependent response | 26 | 73 | 15.3 | 119 | 611 | 64.6
